Drawing on PubChem BioAssay AID2286 (Southern Research Specialized Biocontainment Screening …, 2010), this text covers viability and minimum viability for 44 compounds.

Activity calls are given as the source filed them.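 The calls were made as follows: active = minimum cell viability of 80% or lower across the dose range, counted as toxic; inactive = minimum cell viability above 80%.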

The nature of this assay: viability loss in fusion assay cells – cell-based, MAGI and MAGI-HeLa co-culture, cytotoxicity control for HIV-1 fusion inhibitor project, dose response (AID 2286).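 As to all read-outs here: cells exposed to compound for at least 64 h before ATP readout; 100% = median of DMSO vehicle wells with no ATP signal meaning 0%.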 The conditions noted are these: MAGI-CCR5 cells viability, CellTiter-Glo ATP luminescence; for minimum viability: measured here: MAGI minimum viability across doses.
Where [1] appears, read: MAGI-HeLa co-culture viability, at 50 µM, stronger effect = lower value.
The mark [2] stands for this setting: at 6.25 µM, stronger effect = lower value.
Setting [3] is: at 12.5 µM, stronger effect = lower value.
[4] abbreviates: at 3.13 µM, stronger effect = lower value.

Take `NC(=O)Cn1cc(C=C2C(=O)NC(=O)NC2=O)c2ccccc21`: the viability runs as follows: under setting [1], 99.6%; (at 50 µM (top of the series)) 91.7% (inactive). Further, the minimum viability (at 50 µM, stronger effect = lower value) worked out at 91.7%.

Turning to `O=C1NC(=O)/C(=C/c2ccc(-c3cc(C(=O)O)ccc3Cl)o2)S1`, the viability reads like this: under setting [1], 105%; (at 50 µM (top of the series)) 91% (inactive). The same compound displayed a minimum viability under setting [2] of 88.5%.

Consider `O=C1N/C(=N\S(=O)(=O)c2ccccc2)S/C1=C\c1cc([N+](=O)[O-])ccc1O`, for which the viability was 107% under setting [1] and 93.8% (inactive) (at 50 µM (top of the series)). The minimum viability under setting [3] was found to be 88.1%.

`CCS(=O)(=O)C1=NN2C(=N)/C(=C\c3ccc(OS(=O)(=O)c4ccccc4)c(OC)c3)C(=O)N=C2S1`: the viability under setting [1] was determined as 97.9% and the viability (at 50 µM (top of the series)) is 85.5% (inactive). Further, the minimum viability (at 1.56 µM, stronger effect = lower value) was 82.4%.

On to `Cc1ccc(S(=O)(=O)Oc2ccc(/C=C3/C(=N)N4C(=NC3=O)SN=C4S(C)(=O)=O)cc2)cc1`, for which, under setting [1], the viability came out at 104%. The compound also gave a minimum viability (at 50 µM, stronger effect = lower value) of 78.9%.

With `CCOc1cc(/C=C2/C(=N)N3C(=NC2=O)SN=C3S(=O)(=O)C(C)C)ccc1OC(=O)c1ccco1`, the viability reads like this: under setting [1], 103%; (at 50 µM (top of the series)) 91.5% (inactive). The minimum viability under setting [3] was found to be 86.8%.

As to `CC(Oc1ccc(Cl)cc1Cl)C(=O)Nc1ccc(S(=O)(=O)Nc2cnc3ccccc3n2)cc1` (centres undefined), the viability under setting [1] is 96.5%. For the same compound, for the setting “at 50 µM, stronger effect = lower value”, the minimum viability worked out at 66.7%.

As for `N#Cc1c(-c2cccs2)nc(SCc2ccc(Cl)cc2)[nH]c1=O`, under setting [1], the viability was 118%. This compound also displayed a minimum viability (at 50 µM, stronger effect = lower value) of 73%.

For the compound `CS(=O)(=O)C1=NSC2=NC(=O)/C(=C\c3ccc(OC(=O)c4ccco4)c(Br)c3)C(=N)N21`, the viability by setting is: under setting [1], 106%; (at 50 µM (top of the series)) 94.8% (inactive). This compound also showed a minimum viability (at 50 µM, stronger effect = lower value) of 94.8%.

For the compound `Cc1cc(Cl)ccc1OC(C)C(=O)Nc1ccc(S(=O)(=O)Nc2cnc3ccccc3n2)cc1` (centres undefined), the viability under setting [1] stood at 89.2%. Under “at 50 µM, stronger effect = lower value”, this compound gave a minimum viability of 72.9%.

For the compound `COc1cc(/C=C2\C(=N)N3N=C(S(C)(=O)=O)SC3=NC2=O)ccc1OS(=O)(=O)c1ccccc1`, the viability was 113% under setting [1] and 91.8% (inactive) (at 50 µM (top of the series)). The compound also gave a minimum viability (at 50 µM, stronger effect = lower value) of 91.8%.

For the compound `CCCCCC#CCC#CCC#CCC#CCCCC(=O)O`, the viability is, setting by setting: under setting [1], 119%; (at 50 µM (top of the series)) 94.8% (inactive). The minimum viability under setting [4] is 89.9%.

Turning to `CS(=O)(=O)C1=NSC2=NC(=O)/C(=C\c3ccc(OS(=O)(=O)c4ccccc4)cc3)C(=N)N21`, the viability under setting [1] amounted to 89.2% and the viability (at 25 µM (top of the series)) was 83.8% (inactive). The minimum viability under setting [3] came out at 83.1%.

Consider `CSc1ccc(C(c2c(C(=O)O)[nH]c3ccccc23)c2c(C(=O)O)[nH]c3ccccc23)cc1`, for which the viability was 89.8% under setting [1] and 92.8% (inactive) (at 50 µM (top of the series)). Under setting [2], this compound came in with a minimum viability of 90.5%.

For the compound `CCc1nnc(NS(=O)(=O)c2ccc(NC(=S)NC(=O)/C=C/c3ccc(F)cc3)cc2)s1`, the viability reads like this: under setting [1], 115%; (at 50 µM (top of the series)) 89.6% (inactive). This compound also gave a minimum viability under setting [3] of 83.8%.

Consider `COC(=O)c1sc(-c2ccc(C(C)(C)C)cc2)cc1NC(=O)CSCC(=O)O`, for which the viability is, setting by setting: under setting [1], 105%; (at 50 µM (top of the series)) 83.5% (inactive). This compound returned a minimum viability (at 50 µM, stronger effect = lower value) of 83.5%.

In the case of `CCC(Sc1nc2ccsc2c(=O)n1Cc1ccc(C(=O)O)cc1)C(=O)Nc1ccc(C)c(Cl)c1` (centres undefined), the viability runs as follows: under setting [1], 98%; (at 25 µM (top of the series)) 93.6% (inactive). Further, under setting [4], the minimum viability worked out at 86.7%.

Consider `O=C(O)c1ccc(-c2ccc(/C=c3/sc4nc5ccccc5n4c3=O)o2)cc1Cl`, for which the viability under setting [1] came out at 116% and the viability (at 50 µM (top of the series)) is 92.3% (inactive). Where the note is “at 25 µM, stronger effect = lower value”, this compound yielded a minimum viability of 87.5%.

`CCOc1ccc(NC(=NCc2ccc3c(c2)OCO3)SC2CC(=O)N(c3ccc(C(=O)O)cc3)C2=O)cc1` (centres undefined): the viability by setting is: under setting [1], 81.3%; (at 25 µM (top of the series)) 84.3% (inactive). Further, the minimum viability (at 25 µM, stronger effect = lower value) stood at 84.3%.

For the compound `COc1ccc(C(=O)COC(=O)c2ccccc2NS(=O)(=O)c2ccc(O)c([N+](=O)[O-])c2)cc1`, the viability reads like this: under setting [1], 96%; (at 50 µM (top of the series)) 83.3% (inactive). Further, the minimum viability (at 50 µM, stronger effect = lower value) came to 83.3%.

Take `CCOc1cc(/C=N/N=C2/NC(=O)C(CC(=O)O)S2)ccc1OCc1ccc(Cl)cc1Cl` (centres undefined): the viability runs as follows: under setting [1], 98.7%; (at 50 µM (top of the series)) 96% (inactive). Besides, the minimum viability under setting [3] is 83.9%.

On to `COc1cc(/C=N/Nc2ccc(Cl)c(C(=O)O)c2)ccc1OC(=O)c1ccccc1F`, for which the viability is 105% under setting [1] and 103% (inactive) (at 50 µM (top of the series)). For the same compound, the minimum viability under setting [4] was found to be 95.8%.

On to `CCN1C(=O)/C(=C\c2ccc(-c3ccc([N+](=O)[O-])cc3OC)o2)SC1=Nc1cccc(C(=O)O)c1`, for which the viability by setting is: under setting [1], 106%; (at 50 µM (top of the series)) 88.3% (inactive). Under setting [4], this compound yielded a minimum viability of 87.5%.

`COc1cccc(-c2coc3c(C)c4oc(=O)c(CCC(=O)O)c(C)c4cc23)c1`: under setting [1], the viability is 83.6%. For the same compound, the minimum viability (at 50 µM, stronger effect = lower value) came to 55.5%.

For `O=C(CN1C(=O)/C(=C2\SC(=S)N(CCS(=O)(=O)O)C2=O)c2ccccc21)Nc1cccc(Br)c1`, the viability under setting [1] was 113% and the viability (at 50 µM (top of the series)) is 83.3% (inactive). Also, the minimum viability (at 50 µM, stronger effect = lower value) came out at 83.3%.

Regarding `CC(C)CS(=O)(=O)C1=NN2C(=N)/C(=C\c3ccc(OC(=O)c4ccco4)cc3)C(=O)N=C2S1`, the viability is 104% under setting [1] and 96.6% (inactive) (at 50 µM (top of the series)). For the same compound, the minimum viability under setting [3] stood at 85.6%.

Take `O=C(O)c1ccc(/C=N/NC(=O)c2ccc(CN3c4cccc5cccc(c45)S3(=O)=O)cc2)cc1`: the viability runs as follows: under setting [1], 93.3%; (at 50 µM (top of the series)) 85% (inactive). This compound also gave a minimum viability under setting [2] of 83.3%.

Regarding `COc1cc(/C=C2\C(=N)N3N=C(S(C)(=O)=O)SC3=NC2=O)cc(OC)c1OCCOc1ccc(C)cc1`, the viability under setting [1] is 111% and the viability (at 50 µM (top of the series)) was 101% (inactive). Where the note is “at 25 µM, stronger effect = lower value”, this compound had a minimum viability of 98.3%.

For `Cc1cc(N2C(=O)C(O)=C(C(=O)c3cc4ccccc4o3)C2c2cccc(Br)c2)no1` (centres undefined), the viability is, setting by setting: under setting [1], 137%; (at 50 µM (top of the series)) 87.1% (inactive). Under “at 25 µM, stronger effect = lower value”, this compound returned a minimum viability of 86.4%.

In the case of `COc1ccc(NC(=O)c2c[nH]n3c(=O)cc(C4CCN(C(=O)OC(C)(C)C)CC4)nc23)cc1Cl`, the viability reads like this: under setting [1], 94.3%; (at 50 µM (top of the series)) 88.3% (inactive). For the same compound, the minimum viability (at 50 µM, stronger effect = lower value) was 88.3%.

For the compound `CCCOc1ccc(C(=O)NNC(=S)NC(=O)c2cc(-c3ccccc3)nc3ccccc23)cc1`, the viability was 112% under setting [1] and 105% (inactive) (at 50 µM (top of the series)). For the same compound, the minimum viability (at 25 µM, stronger effect = lower value) worked out at 99%.

For `N#Cc1c(-c2ccccc2)nc(SCc2cccc(C(F)(F)F)c2)[nH]c1=O`, the viability was 115% under setting [1] and 82.1% (inactive) (at 50 µM (top of the series)). The compound also displayed a minimum viability (at 50 µM, stronger effect = lower value) of 82.1%.

Regarding `COc1cc(/C=C2/C(=O)NN(c3ccc(Cl)cc3)C2=O)ccc1OC(=O)c1ccco1`, the viability runs as follows: under setting [1], 115%; (at 50 µM (top of the series)) 96.4% (inactive). The compound further yielded a minimum viability (at 50 µM, stronger effect = lower value) of 96.4%.

With `CC(C)(C)CC(C)(C)c1ccc(OCC(=O)N/N=C/c2ccc(S(=O)(=O)O)o2)cc1`, the viability by setting is: under setting [1], 104%; (at 50 µM (top of the series)) 87.8% (inactive). Also, the minimum viability under setting [3] was 81.1%.

With `CCCCCc1c2c(cc(O)c1C(=O)O)OC(=O)c1c(cc(OC)cc1C(=O)CCCC)O2`, the viability by setting is: under setting [1], 82%; (at 50 µM (top of the series)) 84.4% (inactive). Besides, the minimum viability (at 50 µM, stronger effect = lower value) was 84.4%.

Consider `O=C(O)/C=C/C(=O)Nc1ccc(C2(c3ccc(NC(=O)/C=C/C(=O)O)cc3)c3ccccc3-c3ccccc32)cc1`, for which the viability reads like this: under setting [1], 120%; (at 50 µM (top of the series)) 93.2% (inactive). Under “at 25 µM, stronger effect = lower value”, this compound showed a minimum viability of 88.8%.

Consider `Cc1cc(C)cc(-n2cccc2/C=C2/C(=N)N3C(=NC2=O)SN=C3S(C)(=O)=O)c1`, for which the viability under setting [1] was determined as 116% and the viability (at 50 µM (top of the series)) is 96.8% (inactive). Moreover, the minimum viability (at 50 µM, stronger effect = lower value) is 96.8%.

As to `O=C1NC(=S)N(c2ccc(F)cc2)C(=O)/C1=C\c1ccoc1`, the viability by setting is: under setting [1], 99.5%; (at 50 µM (top of the series)) 84.8% (inactive). The compound also gave a minimum viability (at 50 µM, stronger effect = lower value) of 84.8%.

With `COc1cc(NS(=O)(=O)c2ccc(NC(=S)NC(=O)c3sc4ccccc4c3Cl)cc2)nc(OC)n1`, under setting [1], the viability is 105%. This compound also registered a minimum viability (at 50 µM, stronger effect = lower value) of 76.8%.

Turning to `CC(C)(C)c1cc(-c2csc(Nc3ccccc3)[n+]2Cc2ccc(C(=O)O)cc2)cc(C(C)(C)C)c1O`, the viability under setting [1] was found to be 96.4%. Also, the minimum viability (at 50 µM, stronger effect = lower value) is 72.2%.

For `COc1cc(NS(=O)(=O)c2ccc(Nc3nc(-c4ccccc4)cs3)cc2)nc(OC)n1`, under setting [1], the viability stood at 82.3%. Besides, the minimum viability (at 50 µM, stronger effect = lower value) was determined as 67.3%.

For `N#Cc1c(-c2ccccc2)nc(SCC(=O)Nc2ccc(OC(F)(F)Cl)cc2)[nH]c1=O`, the viability reads like this: under setting [1], 102%; (at 50 µM (top of the series)) 96.6% (inactive). The compound further had a minimum viability (at 25 µM, stronger effect = lower value) of 84.9%.

On to `Cc1ccc(S(=O)(=O)Oc2ccc(/C=C3\C(=N)N4N=C(S(C)(=O)=O)SC4=NC3=O)cc2)cc1`, for which the viability runs as follows: under setting [1], 103%; (at 50 µM (top of the series)) 98.5% (inactive). For the same compound, the minimum viability (at 25 µM, stronger effect = lower value) is 97.1%.

Turning to `O=C(CCN1C(=O)/C(=C/c2ccco2)SC1=S)Nc1ccc(C(=O)O)c(O)c1`, the viability by setting is: under setting [1], 108%; (at 50 µM (top of the series)) 90.6% (inactive). The minimum viability under setting [3] came out at 83%.
